Drawing on US10011607B2, “Ethynyl derivatives” (Hoffmann-La Roche Inc., priority 2015, dated 2018), this text covers Emax and EC50 for 18 compounds.

The target in the test is human mGlu4 receptor (Homo sapiens (Human), UniProt Q14833). The test can be described thus: Ca2+ mobilization in vitro assay on recombinant human mGlu4 expressed in HEK293 cells (PAM). Format: cell-based. To be noted: for Emax: HEK293, maximal response in % of maximal stimulatory effect of saturating L-AP4, read-out: Eff. (%); for EC50: HEK293 cells, human mGlu4, in presence of EC20 of L-AP4, read-out: EC50 (nM) mGlu4PAM. The method in brief: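 HEK293 cells stably expressing human mGlu4 at low level, Fluo-4AM loaded; compound (11 half-log dilutions) pre-incubated 10–30 min at 37 °C, then L-AP4 added at EC20 (determined daily). Peak fluorescence minus basal, normalized to saturating L-AP4; EC50, Hill slope and % Emax from four-parameter fit.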
Chain of human mGlu4 receptor (Q14833 33-912): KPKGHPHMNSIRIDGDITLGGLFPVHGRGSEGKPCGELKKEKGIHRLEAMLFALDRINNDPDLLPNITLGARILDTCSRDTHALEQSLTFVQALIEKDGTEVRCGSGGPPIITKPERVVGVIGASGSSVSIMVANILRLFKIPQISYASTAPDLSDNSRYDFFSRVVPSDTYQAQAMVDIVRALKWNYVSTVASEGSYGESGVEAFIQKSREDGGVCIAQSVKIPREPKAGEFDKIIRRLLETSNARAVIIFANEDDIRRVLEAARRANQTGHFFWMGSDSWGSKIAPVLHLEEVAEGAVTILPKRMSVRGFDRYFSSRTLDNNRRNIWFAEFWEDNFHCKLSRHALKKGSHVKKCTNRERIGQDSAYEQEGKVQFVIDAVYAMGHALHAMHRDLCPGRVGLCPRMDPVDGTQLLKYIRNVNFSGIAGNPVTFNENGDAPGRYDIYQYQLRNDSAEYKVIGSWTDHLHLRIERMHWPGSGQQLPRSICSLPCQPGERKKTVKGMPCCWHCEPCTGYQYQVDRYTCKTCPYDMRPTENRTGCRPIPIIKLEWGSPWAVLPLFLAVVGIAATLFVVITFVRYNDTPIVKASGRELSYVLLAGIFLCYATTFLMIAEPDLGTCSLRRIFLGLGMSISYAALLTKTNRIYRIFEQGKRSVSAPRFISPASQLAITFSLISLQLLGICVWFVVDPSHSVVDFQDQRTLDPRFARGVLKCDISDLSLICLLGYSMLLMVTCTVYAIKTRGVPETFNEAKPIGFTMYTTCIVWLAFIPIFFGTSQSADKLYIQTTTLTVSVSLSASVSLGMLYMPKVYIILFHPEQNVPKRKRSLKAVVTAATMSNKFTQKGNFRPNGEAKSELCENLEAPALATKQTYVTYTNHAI

As usually defined, the EC50 is the concentration giving half of the maximal effect. Take `CC12CC(=O)N(c3ccc(C#Cc4ccccc4)cc3F)C(=O)N1CCN(c1cccnc1)C2=O` (racemic) [Example 108, (9aRS)-7-[2-fluoro-4-(2-phenylethynyl)phenyl]-9a-methyl-2-(3-pyridyl)-4,9-dihydro-3H-pyrazino[1,2-c]pyrimidine-1,6,8-trione]: the Emax worked out at 103% and the EC50 worked out at 267 nM.

On to `C[C@@]12CC(=O)N(c3c(F)cc(C#Cc4ccccc4)cc3F)C(=O)N1CCN(c1ccccn1)C2=O` [Example 5, (9aS)-7-[2,6-difluoro-4-(2-phenylethynyl)phenyl]-9a-methyl-2-(2-pyridyl)-4,9-dihydro-3H-pyrazino[1,2-c]pyrimidine-1,6,8-trione], for which the Emax stood at 92% and the EC50 turned out to be 46 nM.

For the compound `C[C@@]12CC(=O)N(c3c(F)cc(C#Cc4ccccc4)cc3F)C(=O)N1CCN(c1cccnc1)C2=O` [Example 7, (9aS)-7-[2,6-difluoro-4-(2-phenylethynyl)phenyl]-9a-methyl-2-(3-pyridyl)-4,9-dihydro-3H-pyrazino[1,2-c]pyrimidine-1,6,8-trione], the Emax was found to be 126% and the EC50 came out at 73 nM.

Turning to `C[C@@]12CC(=O)N(c3c(F)cc(C#Cc4ccccc4)cc3F)C(=O)N1CCN(c1ccncc1)C2=O` [Example 9, (9aS)-7-[2,6-difluoro-4-(2-phenylethynyl)phenyl]-9a-methyl-2-(4-pyridyl)-4,9-dihydro-3H-pyrazino[1,2-c]pyrimidine-1,6,8-trione], the Emax amounted to 85% and the EC50 is 29 nM.

Regarding `Cc1ccnc(N2CCN3C(=O)N(c4c(F)cc(C#Cc5ccccc5)cc4F)C(=O)C[C@@]3(C)C2=O)c1` [Example 13, (9aS)-7-[2,6-difluoro-4-(2-phenylethynyl)phenyl]-9a-methyl-2-(4-methyl-2-pyridyl)-4,9-dihydro-3H-pyrazino[1,2-c]pyrimidine-1,6,8-trione], the Emax was 148% and the EC50 amounted to 131 nM.

`Cc1cncc(N2CCN3C(=O)N(c4c(F)cc(C#Cc5ccccc5)cc4F)C(=O)C[C@@]3(C)C2=O)c1` [Example 15, (9aS)-7-[2,6-difluoro-4-(2-phenylethynyl)phenyl]-9a-methyl-2-(5-methyl-3-pyridyl)-4,9-dihydro-3H-pyrazino[1,2-c]pyrimidine-1,6,8-trione]: the Emax amounted to 90% and the EC50 is 152 nM.

`Cc1cncc(C)c1N1CCN2C(=O)N(c3c(F)cc(C#Cc4ccccc4)cc3F)C(=O)C[C@@]2(C)C1=O` [Example 17, (9aS)-7-[2,6-difluoro-4-(2-phenylethynyl)phenyl]-2-(3,5-dimethyl-4-pyridyl)-9a-methyl-4,9-dihydro-3H-pyrazino[1,2-c]pyrimidine-1,6,8-trione]: the Emax amounted to 136% and the EC50 is 201 nM.

On to `C[C@@]12CC(=O)N(c3c(F)cc(C#Cc4ccccc4)cc3F)C(=O)N1CCN(c1ccnc(Cl)c1)C2=O` [Example 19, (9aS)-2-(2-chloro-4-pyridyl)-7-[2,6-difluoro-4-(2-phenylethynyl)phenyl]-9a-methyl-4,9-dihydro-3H-pyrazino[1,2-c]pyrimidine-1,6,8-trione], for which the Emax came to 100% and the concentration giving a half-maximal response (EC50) turned out to be 69 nM.

Take `C[C@@]12CC(=O)N(c3c(F)cc(C#Cc4ccccc4)cc3F)C(=O)N1CCN(c1ccc(Cl)nc1)C2=O` [Example 21, (9aS)-2-(6-chloro-3-pyridyl)-7-[2,6-difluoro-4-(2-phenylethynyl)phenyl]-9a-methyl-4,9-dihydro-3H-pyrazino[1,2-c]pyrimidine-1,6,8-trione]: the Emax turned out to be 142% and the EC50 came out at 73 nM.

Turning to `COc1ccc(N2CCN3C(=O)N(c4c(F)cc(C#Cc5ccccc5)cc4F)C(=O)C[C@@]3(C)C2=O)cn1` [Example 23, (9aS)-7-[2,6-difluoro-4-(2-phenylethynyl)phenyl]-2-(6-methoxy-3-pyridyl)-9a-methyl-4,9-dihydro-3H-pyrazino[1,2-c]pyrimidine-1,6,8-trione], the Emax was determined as 114% and the concentration for a half-maximal effect (EC50) is 61 nM.

For the compound `Cn1cc(N2CCN3C(=O)N(c4c(F)cc(C#Cc5ccccc5)cc4F)C(=O)C[C@@]3(C)C2=O)ccc1=O` [Example 24, (9aS)-7-[2,6-difluoro-4-(2-phenylethynyl)phenyl]-9a-methyl-2-(1-methyl-6-oxo-3-pyridyl)-4,9-dihydro-3H-pyrazino[1,2-c]pyrimidine-1,6,8-trione], the Emax was 103% and the EC50 was 128 nM.

In the case of `C[C@@]12CC(=O)N(c3c(F)cc(C#Cc4ccccc4)cc3F)C(=O)N1CCN(c1ccncn1)C2=O` [Example 27, (9aS)-7-[2,6-difluoro-4-(2-phenylethynyl)phenyl]-9a-methyl-2-pyrimidin-4-yl-4,9-dihydro-3H-pyrazino[1,2-c]pyrimidine-1,6,8-trione], the Emax came out at 136% and the EC50 came out at 39 nM.

With `Cc1nccc(N2CCN3C(=O)N(c4c(F)cc(C#Cc5ccccc5)cc4F)C(=O)C[C@@]3(C)C2=O)n1` [Example 31, (9aS)-7-[2,6-difluoro-4-(2-phenylethynyl)phenyl]-9a-methyl-2-(2-methylpyrimidin-4-yl)-4,9-dihydro-3H-pyrazino[1,2-c]pyrimidine-1,6,8-trione], the Emax stood at 91% and the EC50 is 88 nM.

With `C[C@@]12CC(=O)N(c3c(F)cc(C#Cc4ccccc4)cc3F)C(=O)N1CCN(c1cnccn1)C2=O` [Example 33, (9aS)-7-[2,6-difluoro-4-(2-phenylethynyl)phenyl]-9a-methyl-2-pyrazin-2-yl-4,9-dihydro-3H-pyrazino[1,2-c]pyrimidine-1,6,8-trione], the Emax was found to be 107% and the EC50 is 46 nM.

Regarding `Cc1cc(N2CCN3C(=O)N(c4c(F)cc(C#Cc5ccccc5)cc4F)C(=O)C[C@@]3(C)C2=O)ncn1` [Example 35, (9aS)-7-[2,6-difluoro-4-(2-phenylethynyl)phenyl]-9a-methyl-2-(6-methylpyrimidin-4-yl)-4,9-dihydro-3H-pyrazino[1,2-c]pyrimidine-1,6,8-trione], the Emax was 121% and the EC50 was 91 nM.

Take `Cc1cncnc1N1CCN2C(=O)N(c3c(F)cc(C#Cc4ccccc4)cc3F)C(=O)C[C@@]2(C)C1=O` [Example 36, (9aS)-7-[2,6-difluoro-4-(2-phenylethynyl)phenyl]-9a-methyl-2-(5-methylpyrimidin-4-yl)-4,9-dihydro-3H-pyrazino[1,2-c]pyrimidine-1,6,8-trione]: the Emax was determined as 132% and the half-maximal effective concentration (EC50) came out at 86 nM.

For the compound `COc1ncc(N2CCN3C(=O)N(c4c(F)cc(C#Cc5ccccc5)cc4F)C(=O)C[C@@]3(C)C2=O)cn1` [Example 37, (9aS)-7-[2,6-difluoro-4-(2-phenylethynyl)phenyl]-2-(2-methoxypyrimidin-5-yl)-9a-methyl-4,9-dihydro-3H-pyrazino[1,2-c]pyrimidine-1,6,8-trione], the Emax is 90% and the EC50 stood at 55 nM.

For the compound `CC(C)(C)Oc1ncc(N2CCN3C(=O)N(c4c(F)cc(C#Cc5ccccc5)cc4F)C(=O)C[C@@]3(C)C2=O)cn1` [Example 38, (9aS)-2-(2-tert-butoxypyrimidin-5-yl)-7-[2,6-difluoro-4-(2-phenylethynyl)phenyl]-9a-methyl-4,9-dihydro-3H-pyrazino[1,2-c]pyrimidine-1,6,8-trione], the Emax was determined as 107%.
